Assay results taken from US20240180838A1, “NANOPARTICLE (NP) COMPOSITIONS AND METHODS OF USE THEREOF” (RUTGERS, THE STATE UNIVERSITY OF NEW JERSEY, priority 2022, published 2024).
≈ marks a conversion by molar mass, not a printed value.

Legend:
S. aureus = conditions: as reported in the literature; cited from earlier work
[1] = Thermogravimetric analysis, thermal stability; format: physicochemical; conditions: TG curve
Procedure: The amount of RFX loaded in DAMO/SBA is carefully determined by comparing the thermogravimetric (TG) traces of RFX/SBA and its parent material (DAMO-SBA), after normalizing the weight losses of the two curves at 100° C. (i.e., the temperature at which physisorbed water should be completely evaporated) (FIGS. 4A-4B). The comparison is done at 750° C., after most organic groups are removed from the samples. […] The decomposition profiles for pure RFX and copper(II) acetate, which is the salt used to immobilize Cu(II) ions into the material. As expected, RFX completely decomposes after 500° C. as it comprises mostly organic groups.

## CC[C@H]1OC(=O)[C@H](C)[C@@H](O[C@H]2C[C@@](C)(OC)[C@@H](O)[C@H](C)O2)[C@H](C)[C@@H](O[C@@H]2O[C@H](C)C[C@H](N(C)C)[C@H]2O)[C@](C)(O)C[C@@H](C)C(=O)[C@H](C)[C@@H](O)[C@]1(C)O [ERM, erythromycin]
S. aureus
  Minimum inhibitory concentrations (MICs): 32 µg/mL (≈ 43.6 µM)

## COc1cc(Cc2cnc(N)nc2N)cc(OC)c1OC [TRM, trimethoprim]
S. aureus
  Minimum inhibitory concentrations (MICs): 0.19 µg/mL (≈ 0.654 µM)

## O=C(Nc1ccc(Oc2ccc(Cl)cc2)c(Cl)c1)c1cc(I)cc(I)c1O [RFX, N-[3-Chloro-4-(4-chlorophenoxy)phenyl]-2-hydroxy-3,5-diiodobenzamide]
[1]
  onset temperature of degradation: 200 °C
